Measured values reported in the supplement of paper PMC10307832.

compound: CN1CCN(CC1)C2=CC(=C(C=C2)NC3=NC=C4C(=N3)N(C5=CC=CC=C5C(=O)N4C)C)OC [XMD8-85] + Nc1nc2[nH]cc(CCc3ccc(C(=O)N[C@@H](CCC(=O)O)C(=O)O)cc3)c2c(=O)[nH]1 [Pemetrexed] (partner 0.2 µM); experiment: relative viability (nuclei count vs DMSO), 5 days (fraction); higher = more cells survive; conditions: first compound 0.08 µM
Method in brief: (§1)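 Dosing by pin tool came one day after lung cancer cell lines were seeded in 1536-well plates, using either one drug or a fixed anchor-drug dose plus five library-drug doses (not always all listed) in √10 steps. After 5 days, nuclei were counted on 4× images. Relative viability is treated-well nuclei count divided by vehicle-well nuclei count, and values are medians of duplicate plates.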

| Cell Line | relative viability |
| --- | --- |
| PC-14 | 0.114 |
| RERF-LC-KJ | 0.46 |
| SK-LU-1 | 0.973 |
| SW 1573 | 0.831 |
| UMC-11 | 0.818 |

same assay, conditions: first compound 0.253 µM

| Cell Line | relative viability |
| --- | --- |
| PC-14 | 0.144 |
| RERF-LC-KJ | 0.478 |
| SK-LU-1 | 0.916 |
| SW 1573 | 0.813 |
| UMC-11 | 0.745 |

same assay, conditions: first compound 0.8 µM

| Cell Line | relative viability |
| --- | --- |
| PC-14 | 0.126 |
| RERF-LC-KJ | 0.484 |
| SK-LU-1 | 0.966 |
| SW 1573 | 1.06 |
| UMC-11 | 0.82 |

same assay, conditions: first compound 2.53 µM

| Cell Line | relative viability |
| --- | --- |
| PC-14 | 0.116 |
| RERF-LC-KJ | 0.497 |
| SK-LU-1 | 1.1 |
| SW 1573 | 0.895 |
| UMC-11 | 0.707 |

same assay, conditions: first compound 8 µM

| Cell Line | relative viability |
| --- | --- |
| PC-14 | 0.101 |
| RERF-LC-KJ | 0.43 |
| SK-LU-1 | 0.851 |
| SW 1573 | 0.461 |
| UMC-11 | 0.391 |

compound: O=C(O)C(Cc1ccccc1[N+](=O)[O-])=NNc1nc(-c2ccc(Cl)c(Cl)c2)cs1 (mixture of isomers) [4EGI-1] + Cc1nc(Nc2ncc(C(=O)Nc3c(C)cccc3Cl)s2)cc(N2CCN(CCO)CC2)n1 [Dasatinib] (partner 0.075 µM); experiment: as above; conditions: first compound 0.5 µM
Method in brief: as §1

| Cell Line | relative viability |
| --- | --- |
| PC-14 | 0.342 |
| RERF-LC-KJ | 0.999 |
| SK-LU-1 | 0.189 |
| SW 1573 | 0.7 |
| UMC-11 | 0.502 |

same assay, conditions: first compound 1.581 µM

| Cell Line | relative viability |
| --- | --- |
| SK-LU-1 | 0.186 |
| SW 1573 | 0.254 |
| UMC-11 | 0.462 |

same assay, conditions: first compound 5 µM

| Cell Line | relative viability |
| --- | --- |
| PC-14 | 0.297 |
| RERF-LC-KJ | 0.641 |
| SK-LU-1 | 0.178 |
| SW 1573 | 0.593 |
| UMC-11 | 0.406 |

same assay, conditions: first compound 15.81 µM

| Cell Line | relative viability |
| --- | --- |
| PC-14 | 0.0363 |
| RERF-LC-KJ | 0.496 |
| SK-LU-1 | 0.198 |
| SW 1573 | 0.234 |
| UMC-11 | 0.415 |

same assay, conditions: first compound 50 µM

| Cell Line | relative viability |
| --- | --- |
| PC-14 | 0.0488 |
| RERF-LC-KJ | 0.266 |
| SK-LU-1 | 0.185 |
| SW 1573 | 0.0967 |
| UMC-11 | 0.208 |

compound: O=C(O)C(Cc1ccccc1[N+](=O)[O-])=NNc1nc(-c2ccc(Cl)c(Cl)c2)cs1 (mixture of isomers) [4EGI-1] + O=C(CCCCCCC(=O)Nc1ccccc1)NO [Vorinostat] (partner 1 µM); experiment: as above; conditions: first compound 0.5 µM
Method in brief: as §1

| Cell Line | relative viability |
| --- | --- |
| PC-14 | 0.865 |
| RERF-LC-KJ | 0.796 |
| SK-LU-1 | 0.717 |
| SW 1573 | 1.09 |
| UMC-11 | 0.448 |

same assay, conditions: first compound 1.581 µM

| Cell Line | relative viability |
| --- | --- |
| RERF-LC-KJ | 0.434 |
| SK-LU-1 | 0.786 |
| SW 1573 | 0.787 |
| UMC-11 | 0.408 |

same assay, conditions: first compound 5 µM

| Cell Line | relative viability |
| --- | --- |
| PC-14 | 0.824 |
| RERF-LC-KJ | 0.739 |
| SK-LU-1 | 0.817 |
| SW 1573 | 0.48 |
| UMC-11 | 0.449 |

same assay, conditions: first compound 15.81 µM

| Cell Line | relative viability |
| --- | --- |
| PC-14 | 0.0883 |
| RERF-LC-KJ | 0.58 |
| SK-LU-1 | 0.757 |
| SW 1573 | 0.455 |
| UMC-11 | 0.446 |

same assay, conditions: first compound 50 µM

| Cell Line | relative viability |
| --- | --- |
| PC-14 | 0.0654 |
| RERF-LC-KJ | 0.428 |
| SK-LU-1 | 0.289 |
| SW 1573 | 0.164 |
| UMC-11 | 0.296 |

compound: O=C(O)C(Cc1ccccc1[N+](=O)[O-])=NNc1nc(-c2ccc(Cl)c(Cl)c2)cs1 (mixture of isomers) [4EGI-1] + CC(C)C[C@H](NC(=O)[C@H](Cc1ccccc1)NC(=O)c1cnccn1)B(O)O [Bortezomib] (partner 0.002 µM); experiment: as above; conditions: first compound 0.5 µM
Method in brief: as §1

| Cell Line | relative viability |
| --- | --- |
| PC-14 | 1.06 |
| RERF-LC-KJ | 1.09 |
| SK-LU-1 | 1.18 |
| SW 1573 | 1.4 |
| UMC-11 | 1.04 |

same assay, conditions: first compound 1.581 µM

| Cell Line | relative viability |
| --- | --- |
| SW 1573 | 1.06 |
| UMC-11 | 0.872 |

same assay, conditions: first compound 5 µM

| Cell Line | relative viability |
| --- | --- |
| PC-14 | 0.839 |
| RERF-LC-KJ | 1.07 |
| SK-LU-1 | 1.36 |
| SW 1573 | 0.972 |
| UMC-11 | 0.669 |

same assay, conditions: first compound 15.81 µM

| Cell Line | relative viability |
| --- | --- |
| RERF-LC-KJ | 0.847 |
| SK-LU-1 | 1.53 |
| SW 1573 | 0.948 |
| UMC-11 | 0.679 |

same assay, conditions: first compound 50 µM

| Cell Line | relative viability |
| --- | --- |
| PC-14 | 0.859 |
| RERF-LC-KJ | 0.931 |
| SK-LU-1 | 0.913 |
| SW 1573 | 0.822 |
| UMC-11 | 0.255 |
